The source of these data is US10683290B2, “Tricyclic compounds as anticancer agents” (BRISTOL-MYERS SQUIBB COMPANY, priority 2015, dated 2020).

The assay concerns the target BRD4 (Homo sapiens, UniProt O60885). Briefly: biochemical. Type of assay: binding. The note with it: one of the FRET assays described; read-out: FRET BRD4 IC50.
One may read the IC50 as the concentration at which inhibition is half-maximal. As to `[2H]C([2H])([2H])c1nnn(C)c1-c1ccc2c3ncc(C(C)(C)O)cc3n(C(c3ncccc3F)C3CCOCC3)c2c1F` (single isomer, unassigned) [Example 84, 2-{6-Fluoro-5-[(3-fluoropyridin-2-yl)(oxan-4-yl)methyl]-7-[4-(^2H3)methyl-1-methyl-1H-1,2,3-triazol-5-yl]-5H-pyrido[3,2-b]indol-3-yl}propan-2-ol], the IC50 is less than 5 nM.

For the molecule `Cc1nnn(C)c1-c1ccc2c3ncc(C(=O)O)cc3n([C@H](c3ccccc3F)C3CCOCC3)c2c1` [Example 29, 7-(Dimethyl-1H-1,2,3-triazol-5-yl)-5-[(S)-(2-fluorophenyl)(oxan-4-yl)methyl]-5H-pyrido[3,2-b]indole-3-carboxylic acid], the concentration for half-maximal inhibition (IC50) was less than 5 nM.

On to `[2H]C([2H])([2H])c1nnn(C)c1-c1cc2c(cc1F)c1ncc(C(C)(C)O)cc1n2C(CCC)c1ccccn1` (single isomer, unassigned) [Example 48, 2-{8-fluoro-7-[4-(^2H3)methyl-1-methyl-1H-1,2,3-triazol-5-yl]-5-[1-(pyridin-2-yl)butyl]-5H-pyrido[3,2-b]indol-3-yl}propan-2-ol], for which the IC50 is less than 1500 nM.

With `[2H]C([2H])([2H])c1nnn(C)c1-c1cc2c(cc1F)c1ncc(C(C)(C)O)cc1n2C(c1ncccc1OC)C1CCOCC1` (single isomer, unassigned) [Example 41, 2-{8-fluoro-5-[(3-methoxypyridin-2-yl)(oxan-4-yl)methyl}-7-[4-(^2H3)methyl-1-methyl-1H-1,2,3-triazol-5-yl]-5H-pyrido[3,2-b]indol-3-yl]propan-2-ol], the IC50 was less than 5 nM.

Consider `[2H]C([2H])([2H])c1nnn(C)c1-c1cc2c(cc1F)c1ncc(C(C)(C)O)cc1n2C(c1ccccc1)C1(C)COC1` (single isomer, unassigned) [Example 65, 2-{8-fluoro-7-[4-(^2H3)methyl-1-methyl-1H-1,2,3-triazol-5-yl]-5-[(3-methyloxetan-3-yl)(phenyl)methyl]-5H-pyrido[3,2-b]indol-3-yl}propan-2-ol], for which the IC50 was less than 1500 nM.

`Cc1nnn(C)c1-c1cc2c(cc1F)c1ncc(S(C)(=O)=O)cc1n2[C@H](c1ccccc1F)C1CCOCC1` [Example 25, 5-{8-Fluoro-5-[(S)-(2-fluorophenyl)(oxan-4-yl)methyl]-3-methanesulfonyl-5H-pyrido[3,2-b]indol-7-yl}-1,4-dimethyl-1H-1,2,3-triazole]: the IC50 was less than 1 nM.

Take `[2H]C([2H])([2H])c1nnn(C)c1-c1cc2c(cc1F)c1ncc(C(C)(C)O)cc1n2C(CCC)c1ncccc1F` (single isomer, unassigned) [Example 39, 2-{8-fluoro-5-[1-(3-fluoropyridin-2-yl)butyl]-7-[4-(^2H3)methyl-1-methyl-1H-1,2,3-triazol-5-yl}-5H-pyrido[3,2-b]indol-3-yl]propan-2-ol]: the half-maximal inhibitory concentration (IC50) is less than 5 nM.

As for `[2H]C([2H])([2H])c1nnn(C)c1-c1ccc2c3ncc(C(C)(C)O)cc3n(C(c3ncccc3F)C3CCOCC3)c2c1F` (single isomer, unassigned) [Example 85, 2-{6-Fluoro-5-[(3-fluoropyridin-2-yl)(oxan-4-yl)methyl]-7-[4-(^2H3)methyl-1-methyl-1H-1,2,3-triazol-5-yl]-5H-pyrido[3,2-b]indol-3-yl}propan-2-ol], the IC50 is less than 5 nM.

Consider `[2H]C([2H])([2H])c1nnn(C)c1-c1cc2c(cc1Cl)c1ncc(C(C)(C)O)cc1n2C(c1ccccn1)C1CCOCC1` (single isomer, unassigned) [Example 81, 2-{8-chloro-7-[4-(^2H3)methyl-1-methyl-1H-1,2,3-triazol-5-yl]-5-[oxan-4-yl(pyridin-2-yl)methyl]-5H-pyrido[3,2-b]indol-3-yl}propan-2-ol], for which the concentration for half-maximal inhibition (IC50) was less than 1500 nM.

`Cc1nnn(C)c1-c1cc(Cl)c2c3ncc(C(C)(C)O)cc3n([C@H](c3ccccc3)C3CCOCC3)c2c1` [Example 13, 2-[9-Chloro-7-(dimethyl-1H-1,2,3-triazol-5-yl)-5-[(S)-oxan-4-yl(phenyl)methyl]-5H-pyrido[3,2-b]indol-3-yl]propan-2-ol]: the IC50 is less than 1 nM.

As for `Cc1nnn(C)c1-c1cc2c(cc1F)c1ncc(C(C)(C)O)cc1n2[C@H](c1ccccc1F)C1CCOCC1` [Example 21, 2-[7-(Dimethyl-1H-1,2,3-triazol-5-yl)-8-fluoro-5-[(S)-(2-fluorophenyl)(oxan-4-yl)methyl]-5H-pyrido[3,2-b]indol-3-yl]propan-2-ol], the half-maximal inhibitory concentration (IC50) was less than 1 nM.

Regarding `[2H]C([2H])([2H])c1nnn(C)c1-c1ccc2c3ncc(C(C)(C)O)cc3n(C(c3cc(C)on3)C3CCOCC3)c2c1` (single isomer, unassigned) [Example 74, 2-{5-[(5-methyl-1,2-oxazol-3-yl)(oxan-4-yl)methyl]-7-[4-(^2H3)methyl-1-methyl-1H-1,2,3-triazol-5-yl]-5H-pyrido[3,2-b]indol-3-yl}propan-2-ol], the IC50 was less than 1500 nM.

Turning to `[2H]C([2H])([2H])c1nnn(C)c1-c1ccc2c3ncc(C(C)(C)O)cc3n(C(c3ncccc3F)C3CCOCC3)c2c1` (single isomer, unassigned) [Example 71, 2-{5-[(3-Fluoropyridin-2-yl)(oxan-4-yl)methyl]-7-[4-(^2H3)methyl-1-methyl-1H-1,2,3-triazol-5-yl]-5H-pyrido[3,2-b]indol-3-yl}propan-2-ol], the 50% inhibitory concentration (IC50) is less than 1 nM.

As to `CCCC(CCC)n1c2cc(-c3c(C)nnn3C)ccc2c2ncc(C(C)(C)O)cc21` [Example 5, 2-[7-(dimethyl-1H-1,2,3-triazol-5-yl)-5-(heptan-4-yl)-5H-pyrido[3,2-b]indol-3-yl]propan-2-ol], the IC50 is less than 5 nM.

With `[2H]C([2H])([2H])c1nnn(C)c1-c1cc2c(cc1F)c1ncc(C(C)(C)O)cc1n2C(c1ccccn1)C1CCOCC1` (single isomer, unassigned) [Example 37, 2-{8-fluoro-7-[4-(^2H3)methyl-1-methyl-1H-1,2,3-triazol-5-yl}-5-[oxan-4-yl(pyridin-2-yl)methyl]-5H-pyrido[3,2-b]indol-3-yl]propan-2-ol], the IC50 is less than 5 nM.

With `Cc1nnn(C)c1-c1ccc2c3ncc(C(C)(C)O)cc3n([C@H](c3ccccc3)C3CCOCC3)c2c1F` [Example 20, 2-[7-(Dimethyl-1H-1,2,3-triazol-5-yl)-6-fluoro-5-[(S)-oxan-4-yl(phenyl)methyl]-5H-pyrido[3,2-b]indol-3-yl]propan-2-ol], the IC50 was less than 5 nM.

Turning to `[2H]C([2H])([2H])c1nnn(C)c1-c1cc2c(cc1F)c1ncc(C(C)(C)O)cc1n2C(c1ncccc1OC)C1CCOCC1` (single isomer, unassigned) [Example 40, 2-{8-fluoro-5-[(3-methoxypyridin-2-yl)(oxan-4-yl)methyl}-7-[4-(^2H3)methyl-1-methyl-1H-1,2,3-triazol-5-yl]-5H-pyrido[3,2-b]indol-3-yl]propan-2-ol], the IC50 was less than 1500 nM.

As to `Cc1nnn(C)c1-c1cc(Cl)c2c3ncc(C(C)(C)O)cc3n(C(CCC(F)(F)F)CCC(F)(F)F)c2c1` [Example 12, 2-[9-Chloro-7-(dimethyl-1H-1,2,3-triazol-5-yl)-5-(1,1,1,7,7,7-hexafluoroheptan-4-yl)-5H-pyrido[3,2-b]indol-3-yl]propan-2-ol], the IC50 was less than 5 nM.
